# Experimental data as given in patent US10316021B2, “Heteroarylphenoxy benzamide kappa opioid ligands” (Pfizer Inc., priority 2016, dated 2019).
# Like-named read-outs stand apart in the source and are kept apart here.
# What was measured:
# HepG2 cells = assay: HepG2_Glu ATP viability 72 hr; format: cell-based, human; conditions: for IC50: Homo sapiens, HepG2, glucose-supplemented media, ATP viability, 72 hour exposure, read-out: HepG2 Glu 72 hr; for cytotoxicity in HepG2 cell line, in words: 72 hours, cellular ATP
# Procedure: This assay was run in a similar manner to the assay as described in Marroquin et al. Toxicological Sciences 97(2), 539-547 (2007) with a modification such that the instant assay was run for a 72 hour period as described below.
# The aim of this assay was to measure cytotoxicity of a compound by measuring cell viability. […] The reagent used to quantify the ATP present was Promega Cell Titer-Glo. This reagent works by catalyzing luciferin by luciferase in the presence of Mg^2+, ATP, and molecular oxygen, thus emitting a luminescent signal, which was proportional to the amount of ATP present in the sample.
# HepG2 cells grown in glucose-supplemented media were plated in 384 well plates at a density of 1000 cells/well for the 72 hour assay in a total medium volume of 25 μl/well. Plates were then incubated for 24 hours at 37° C., 95% humidity, and 5% CO2 before compound dosing.
# After 24 hours to allow cells to attach to the plate, HepG2 cells were exposed to test compounds in an 11-point dose response format with a […], ranging from 300 uM to 0.029 uM for 72 hours. All compounds were tested in triplicate. Following the 72 hour exposure to test compounds, cell viability was determined by measuring the concentration of cellular ATP by adding Promega Cell Titer-Glo according to the manufacturer's directions. The plates were then read on a […] plate reader and data is analyzed using ActivityBase software.
# major CYP450 isozymes = assay: CYP450 DDI cocktail assay (reversible inhibition, all isozymes together); format: in vitro ADME, human; conditions: for >25% reversible inhibition of CYP activity at 3 μM (CYP): CYP450 DDI cocktail assay, isozymes inhibited in brackets; for risk of reversible inhibition of CYP450 isozymes, in words: 3 μM
# Procedure: Multi-Point Cocktail DDI IC50 Assay Conditions:
# Standard marker activity substrates were incubated with pooled human liver microsomes (HL-MIX-102) in the presence of NADPH (1.2 mM) in 100 mM KH2PO4, pH 7.4 containing 3.3 mM MgCl2 at 37° C. The incubation volume was 0.1 mL, utilizing a 384-well plate format. The microsomal protein concentrations (0.1 mg/mL) and P450 concentration (0.035 μM) was used for each probe substrate at the following concentrations [tacrine (1A2) 2 uM; diclofenac (2C9) 5 μM; dextromethorphan (2D6) 5 μM; midazolam (3A4) 2 μM; taxol (2C8) 5 μM; S-mephenytoin (2C19) 40 μM]. Substrate concentrations were near Km values that had been previously determined and incubation times were selected based on determinations of reaction velocity linearity. Each test compound/prototypical inhibitors was tested at a concentration range of 0-30 μM in triplicate, in final vehicle solvent concentrations of 0.9% acetonitrile and 0.1% DMSO. Incubations were initiated with the addition of NADPH. At the end of the incubation period, termination solvent containing internal standard was added, the terminated incubation mixture was centrifuged to precipitate microsomal protein. Samples were directly injected on an HPLC-MS/MS system. A Biomek FX workstation was used for liquid handling and sample incubation.
# Reversible CYP450 inhibitory potential for each compound was assessed using the CYP450 DDI cocktail assay, measuring the inhibition of the metabolism of a known probe substrate of each of the major CYP isozymes at 3 μM concentration.
# [1] = target: T1, human mu opioid receptor (hMOR) (Homo sapiens, UniProt P35372); assay: Mu radioligand binding assay ([3H]diprenorphine, CHO cell membranes); conditions: read-out: hMOR binding assay Ki
# T1 construct: expressed in transfected cells; host or cells: CHO cells
# T1 sequence (P35372 whole entry): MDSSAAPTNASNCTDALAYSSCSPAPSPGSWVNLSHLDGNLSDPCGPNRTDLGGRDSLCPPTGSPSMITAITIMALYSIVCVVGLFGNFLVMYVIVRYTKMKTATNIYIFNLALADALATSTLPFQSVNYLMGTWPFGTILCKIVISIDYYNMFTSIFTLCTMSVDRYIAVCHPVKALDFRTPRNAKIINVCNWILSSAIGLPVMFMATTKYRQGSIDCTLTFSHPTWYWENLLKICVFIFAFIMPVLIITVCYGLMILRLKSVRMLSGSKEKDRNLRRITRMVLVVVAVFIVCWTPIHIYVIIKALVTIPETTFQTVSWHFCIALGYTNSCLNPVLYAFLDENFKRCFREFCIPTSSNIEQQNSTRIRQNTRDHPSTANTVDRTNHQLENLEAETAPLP
# Outline: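 Membranes from CHO cells expressing human mu receptor were incubated 1 h at room temperature with [3H]diprenorphine (0.5 nM final) in Tris pH 7.4 buffer with EDTA and MgCl2; naltrexone (10 μM) defined non-specific binding. Filter-bound radioactivity was counted; Ki derived by Cheng-Prusoff from IC50.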
# [2] = Table 19, geometric mean of 2-6 determinations unless otherwise indicated (Example 3: >=7)
IC50 (HepG2 cells) [nM],>25% reversible inhibition of CYP activity at 3 μM (CYP) (major CYP450 isozymes),"Ki [1, 2] [nM]",Compound,"cytotoxicity in HepG2 cell line, in words (HepG2 cells)","Ki ([1]; Table 20, radioligand binding) [nM]","risk of reversible inhibition of CYP450 isozymes, in words (major CYP450 isozymes)"
112000,no,–,NC(=O)c1ccc(Oc2ccc(CN3CCCCC3c3ccccc3)cc2)nc1 (stereo not shown) [Comparator B],–,–,–
174000,no,–,"NC(=O)c1ccc(Oc2ccc(CN3CCC(c4ccccc4)C3)cc2)nc1 (stereo not shown) [Comparator A, reference compound]",–,0.1,–
72000,"yes (2C8, 2C9,",–,NC(=O)c1ccc(Oc2ccc(CN3CCCC3c3cccnc3)cc2)c(Cl)c1 (stereo not shown) [Comparator C],–,21,"a risk for reversible DDI at CYP450 isozymes 2C8, 2C9, 3A4, and/or 2D6"

# Continued, molecule first:
Compound,IC50 (HepG2 cells) [nM],>25% reversible inhibition of CYP activity at 3 μM (CYP) (major CYP450 isozymes),"Ki [1, 2] [nM]","cytotoxicity in HepG2 cell line, in words (HepG2 cells)","Ki ([1]; Table 20, radioligand binding) [nM]","risk of reversible inhibition of CYP450 isozymes, in words (major CYP450 isozymes)"
"COc1nn(C)cc1[C@@H]1CCCN1Cc1ccc(Oc2ccc(C(N)=O)cc2)cc1 (single isomer, unassigned) [Example 12]",> 300000,no,46.2,little to no cytotoxicity,46,no significant risk of reversible inhibition
NC(=O)c1ccc(Oc2ccc(CN3CCC[C@H]3c3cccc(F)c3)cc2)c(F)c1 [Comparator F],56000,no,–,cytotoxicity at lower concentrations,37.5,–
"Cc1cc(C)cc([C@@H]2CCCN2Cc2ccc(Oc3ccc(C(N)=O)cc3F)cc2)c1 [Comparator E, reference compound]",43000,yes (2C8),–,cytotoxicity at lower concentrations,7.8,"a risk for reversible DDI at CYP450 isozymes 2C8, 2C9, 3A4, and/or 2D6"
"Cc1nn(C)cc1[C@@H]1CCCN1Cc1ccc(Oc2ccc(C(N)=O)cc2)cc1 [Example 11, 4-(4-{[(2S)-2-(1,3-Dimethyl-1H-pyrazol-4-yl)pyrrolidin-1-yl]methyl}phenoxy)benzamide]",267000,no,51,little to no cytotoxicity,51,no significant risk of reversible inhibition
"COc1nn(C)cc1C1CCCN1Cc1ccc(Oc2ccc(C(N)=O)cc2F)cc1 (single isomer, unassigned; (-)) [Example 8, (−)-3-Fluoro-4-(4-{[2-(3-methoxy-1-methyl-1H-pyrazol-4-yl)pyrrolidin-1-yl]methyl}phenoxy)benzamide]",> 300000,no,98.7,little to no cytotoxicity,99,no significant risk of reversible inhibition
NC(=O)c1ccc(Oc2ccc(CN3CCCC3c3ccccc3)cc2)nc1 (stereo not shown) [Comparator D],69000,yes (2D6),–,–,163,"a risk for reversible DDI at CYP450 isozymes 2C8, 2C9, 3A4, and/or 2D6"
